For one test, the target named is T1, MAO-B (Mus musculus, UniProt Q8BW75).
T1 construct: host or cells: brain and peripheral organs of treated animals
T1 sequence (Q8BW75 1-520): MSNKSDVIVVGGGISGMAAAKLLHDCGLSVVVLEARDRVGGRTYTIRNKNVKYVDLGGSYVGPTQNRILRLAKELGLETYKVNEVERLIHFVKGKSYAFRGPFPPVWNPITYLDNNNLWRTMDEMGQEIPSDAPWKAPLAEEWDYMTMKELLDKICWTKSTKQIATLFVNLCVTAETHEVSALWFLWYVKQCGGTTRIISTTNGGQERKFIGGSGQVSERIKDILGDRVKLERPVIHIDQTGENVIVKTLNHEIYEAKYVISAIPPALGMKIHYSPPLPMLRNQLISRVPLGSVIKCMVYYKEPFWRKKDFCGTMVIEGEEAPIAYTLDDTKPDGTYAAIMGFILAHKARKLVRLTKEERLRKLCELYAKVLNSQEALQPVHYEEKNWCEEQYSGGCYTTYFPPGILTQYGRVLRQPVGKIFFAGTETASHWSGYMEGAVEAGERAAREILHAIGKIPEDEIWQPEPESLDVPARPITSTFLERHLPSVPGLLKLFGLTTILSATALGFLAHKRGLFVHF
The conditions noted are these: Gal et al., 2005, cited from earlier work.

Test [1] concerns nigral dopaminergic neurons. The following applies: MPTP model, also given post-MPTP; Gal et al., 2005; cited from earlier work.
A further test addresses T2, MAO-A (Mus musculus, UniProt Q64133).
T2 construct: host or cells: brain and peripheral organs of treated animals
T2 sequence (Q64133 1-526): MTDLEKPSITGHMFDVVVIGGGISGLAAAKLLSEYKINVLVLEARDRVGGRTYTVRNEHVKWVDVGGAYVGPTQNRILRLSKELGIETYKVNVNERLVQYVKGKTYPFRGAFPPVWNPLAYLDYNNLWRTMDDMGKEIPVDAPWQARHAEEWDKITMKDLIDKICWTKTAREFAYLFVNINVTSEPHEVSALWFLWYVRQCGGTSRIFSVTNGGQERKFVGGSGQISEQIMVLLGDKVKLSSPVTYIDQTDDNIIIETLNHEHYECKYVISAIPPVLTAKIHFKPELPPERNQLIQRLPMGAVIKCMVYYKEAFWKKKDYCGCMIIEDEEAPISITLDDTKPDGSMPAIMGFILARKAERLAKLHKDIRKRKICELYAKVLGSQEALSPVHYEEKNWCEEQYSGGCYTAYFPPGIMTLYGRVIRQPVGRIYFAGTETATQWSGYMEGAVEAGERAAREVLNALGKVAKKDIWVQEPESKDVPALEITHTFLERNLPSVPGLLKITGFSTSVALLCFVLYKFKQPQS
The following applies: Gal et al., 2005, cited from earlier work.

In test [2] the test system is SH-SY5Y cells. The test is classed as cell-based. As for the experimental part:
Human neuroblastoma cell line was also examined under conditions similar to RIN-m cells to reveal the corrole's ability to prevent neuronal death caused by oxidative stress. SH-SY5Y cells were plated in microtiter plates (96 wells) in DMEM-Eagle/F-12(HAM) (1:1), containing 10% FCS. To examine neuroprotective effect, SH-SY5Y cells were treated for 30 min with corroles 1C-Fe and 5C-Fe (20 and 50 μM) before addition of 20 μM H2O2 for 24 h. To examine neurorescue, SH-SY5Y cells were first exposed to 20 μM H2O2 for 0.5 h, 1.5 h or 3 h, followed by the addition of corroles 1C-Fe and 5C-Fe (20 μM) and incubation for 24 h.
Compounds 1C-Fe and 1P-Fe (1-50 μM) were added 30 min before insult with H2O2 (200 μM), followed by a subsequent 24 h period. The neuroprotective effects of the iron corrole 1C-Fe and its structurally analogous iron porphyrin 1P-Fe, against H2O2-induced neurotoxicity were investigated using MTT reduction assay and cell death ELISA, based on the use of mouse monoclonal antibodies to detect free histones and fragmented DNA (F. Hollderieder et al, Biochemica 2002, 1, 25). […] In light of the observed neuroprotective effect of corrole 1C-Fe, we attempted to determine the length of the delay between H2O2 exposure and corrole 1C-Fe treatment that would still afford neuroprotection. H2O2 was administered to SH-SY5Y cells and corrole 1C-Fe was then added for 0.5-1.5 h thereafter. […]

The test system of a further test is NSC-34 G93A cells. Nature of the test: Cell culture model of familial ALS, NSC-34 cells expressing mutant G93A-SOD1. In kind it is cell-based, mouse. The conditions noted are these: 48 h induction; even at a concentration as low as 0.5 μM. As for the experimental part:
Mutant-superoxide dismutase (G93A-SOD1) is associated with familial amyotrophic lateral sclerosis (FALS). A cell culture model of FALS was implemented by stably transfecting mouse motoneuronal NSC-34 cells or SH-SY5Y cells, to express mutant G93A-SOD1 at levels approximating those seen in the human disease. NSC-34 cells or SH-SY5Y cells were incubated in Dulbecco's modified Eagle's/F-12 medium supplemented with 10% FCS tetracycline-free (FCS Tet-free; Clontech), at 37° C. in an atmosphere of 5% CO2 in air. These cell lines are stably transfected with the pTet-ON plasmid (Clontech, Palo Alto, Calif.) coding for the reverse tetracycline controlled transactivator (rtTA). Induction of mutant SOD1 expression was obtained by shifting nonconfluent cultures into growth medium containing 1% N2 supplement (Invitrogen, Carlsbad, Calif.) and […] doxocyclin for 48 h in the presence or absence of corrole 1C-Fe and 5C-Fe.

For another test, the system named is INS-1E cells. Nature of the test: Protection of INS-1E cells against SIN-1 toxicity (MTT). The test is classed as cell-based, rat. The following applies: 10 μM, 30 min before SIN-1 (500 or 600 μM), 24 h. As for the experimental part:
(§1) INS-1E cells or RIN-m cells were cultured in RPMI with low serum content (2% FCS), placed in microtiter plates (96 wells) at a density of 2.5×10^4 cells/well and allowed to attach for 24 h before treatment. Corroles 1C-Fe and 5C-Fe (10 μM) were added 30 min prior to insult with the nitric oxide donor SIN-1 (500 or 600 μM) for a subsequent 24 h period. Cell viability was evaluated by a colorimetric assay for mitochondrial function using 3-(4,5-dimethylthiazol-2-yl)-2,5-diphenyltetrazolium bromide (MTT test), and expressed as percentage of untreated control. Values higher than 100% reflect increased mitochondrial activity induced by the drug. The results represent the mean±SEM of three independent experiments performed under the same conditions.

The test system of test [3] is RIN-m cells. Nature of the test: Protection of RIN-m cells against SIN-1 toxicity (MTT). In kind it is cell-based, rat. The conditions noted are these: 10 μM, 30 min before SIN-1 (500 or 600 μM), 24 h. The protocol: as §1
Insulin-secreting RIN-m cells were incubated in RPMI with low serum content (2% FCS) and placed in microtiter plates (96 wells) at a density of 2.5×10^4 cells/well and allowed to attach for 24 h before treatment. Cells were treated with corroles 1C-Fe, 1C-Mn or 2C-Mn or porphyrins 1P-Fe or 2P-Mn, in various concentrations (0.1-20 μM), for 30 min prior to insult with SIN-1 (800 μM) for a subsequent 24 h period. Cell viability was evaluated by MTT test and expressed as percentage of untreated control.

Test [4] deals with SH-SY5Y cells. The test is classed as cell-based. The following applies: 24 h. The protocol: SH-SY5Y cells were cultured in DMEM-Eagle/F-12(HAM) (1:1) containing 10% FCS. Cells were resuspended in medium containing 2% FCS, seeded in microtiter plates (96 wells) and allowed to attach for 24 h. To examine the neuroprotective effect, cells were pretreated for 30 min with corroles 1C-Fe and 5C-Fe (1-20 μM), and were then exposed to 6-OHDA (60 μM) for further 24 h. For neurorescue assessment, SH-SY5Y cells were first treated with 6-OHDA (60 μM) for 0.5 h, 1.5 h, 3 h and 6 h followed by the addition of compounds 1C-Fe and 5C-Fe (10 μM) for further 24 h.
SH-SY5Y cells were pretreated with or without corroles 1C-Fe, 2C-Mn and 3C-Mn and porphyrins 1P-Fe and 2P-Mn (20 μM), 30 min before exposure to 6-OHDA (40 μM) for a subsequent 24 h period. Cell viability was evaluated by MTT test and cell death was assessed using the apoptotic cell death detection ELISA kit. For neurorescue, SH-SY5Y cells were first exposed to 40 μM 6-OHDA for 0.5. 1, 1.5 and 3 h, followed by the addition of the compounds 1C-Fe, 2C-Mn and 3C-Mn (20 μM) and incubated for further 24 h. Growth-associated protein (GAP-43) was detected by fluorescence microscopy using a specific primary antibody. Apoptotic nuclei were determined by terminal deoxynucleotidyl transferase-mediated UTP-digoxigenin nick end labeling analysis. 4′,6-Diamidino-2-phenylnidole (DAPI) staining was applied for nuclear labeling. […]

The subject of test [5] is RIN-m cells. The experiment in a line: Protection of RIN-m beta cells against H2O2 toxicity (MTT). The test is classed as cell-based, rat. The following applies: 20 μM, 30 min before 35 μM H2O2, 24 h. The protocol:
Two insulin-secreting beta cell lines, rat insulinoma (INS-1E) and RIN-m cells, were used to examine the protective effect of corrole 1C-Fe. The cells were cultured at 37° C., in a humid 5% CO2, 95% air environment in regular RPMI-1640 medium (Invitrogen) supplemented with 5% fetal calf serum (FCS).
After 2 days of culture, RIN-m cells (5×10^4 cells/well in 96-well plates) were treated with corrole 1C-Fe (1-50 μM) before addition of 35 μM of H2O2. Cell viability was evaluated by a colorimetric assay for mitochondrial function estimation using the MTT test as previously described (Gassen et al., 1998) and expressed as percentage of control.
RIN-m cells were grown as described in Example 5. After 3 days of culture, RIN-m cells (2.5×10^4 cells/well in 96-well plates) were treated with corroles 1C-Fe or 5C-Fe or porphyrin 1P-Fe (1 and 20 μM), added 30 min prior to treatment with 35 μM H2O2 and further incubated for 24 h. Cell injury was evaluated by MTT test. […] […].
Protective effect of iron(III) corrole complexes against H2O2-induced toxicity (150 μM) was compared to that of manganese(III) corroles and related porphyrin. […].

Test [6] relates to SH-SY5Y cells. The experiment in a line: Neuroprotection/neurorescue against SIN-1-induced cell death in SH-SY5Y cells. The conditions noted are these: 24 h (Example 11). The test is classed as cell-based, human. As for the experimental part:
SH-SY5Y cells were cultured in DMEM-Eagle/F-12(HAM) (1:1) containing 10% FCS. Cells were resuspended in medium containing 2% FCS, seeded in microtiter plates (96 wells) and allowed to attach for 24 h before initiation of treatment. […]

The text below walks through data of patent US20140045809A1, “CORROLES FOR NEUROPROTECTION AND NEURORESCUE” (priority 2008, published 2014).

Molecules are shown by their SMILES. Read-outs that look alike come from different tables or passages of the source.

For `C#CCN(C)Cc1ccc(O)c2ncccc12` [M-30], the MAO-B inhibition result on MAO-B (in peripheral organs) is recorded as “poorly”; at MAO-B (in the brain), “potently inhibits”. Further, in test [1], the “neuroprotection and restoration of nigral dopaminergic neurons” value was “neuroprotective and also have the ability to restore nigral dopaminergic neurons when given post-MPTP”. Besides, the MAO-A inhibition entry on MAO-A (in peripheral organs) is on record as “poorly”; at MAO-A (in the brain), “potently inhibits”.
As to `O=C(O)CNS(=O)(=O)c1cc2[n]3c1C(c1c(F)c(F)c(F)c(F)c1F)=C1C=CC4=[N+]1[Fe-]31[n]3c(cc(S(=O)(=O)NCC(=O)O)c3-2)C(c2c(F)c(F)c(F)c(F)c2F)=c2ccc([n]21)=C4c1c(F)c(F)c(F)c(F)c1F` (stereo not shown) [5C-Fe, 2,17-bis(N-sulfonylglycine)-5,10,15-tris(pentafluoro-phenyl)-corrolato iron(III)], the “neurorescue after H2O2 insult” value in the test with SH-SY5Y cells [2] (20 μM H2O2 for 0.5, 1.5 or 3 h, then 20 μM corrole, 24 h) is reported as “instigated neurorescue”. In addition, in the test with SH-SY5Y cells [2] (20 and 50 μM, 30 min before 20 μM H2O2, 24 h), the “neuroprotective effect against H2O2-induced toxicity” value is recorded as “dose-dependent neuroprotective effect”. Besides, the “cell viability of induced mutant cells” value in the test on NSC-34 G93A cells is recorded as “significantly improved cell viability”. In addition, the “protective effect against SIN-1 induced toxicity (MTT)” value in the test with INS-1E cells and in the test on RIN-m cells [3] was “marked protective effect” throughout. The “neuroprotective effect against 6-OHDA-induced toxicity” value in the test with SH-SY5Y cells [4] (1-20 μM, 30 min before 6-OHDA (60 μM)) is “dose-dependent neuroprotective effect”. For the same compound, the “neurorescue after 6-OHDA insult” value in the test with SH-SY5Y cells [4] (6-OHDA (60 μM) for 0.5, 1.5, 3 and 6 h, then 10 μM) is reported as “instigated neurorescue”. The “protective effect against H2O2 toxicity relative to porphyrin 1P-Fe (MTT)” value with RIN-m cells [5] was “exhibit a greater protective effect”. In addition, in the test on SH-SY5Y cells [6] (20 μM added 0.5, 1.5 or 3 h after insult), the “neurorescue after SIN-1 insult” value was “instigated neurorescue”. Further, the “neuroprotective effect against SIN-1 induced toxicity” value with SH-SY5Y cells [6] (10 and 20 μM, 30 min pretreatment) was “dose-dependent neuroprotective effect”.
As for `C#CCN[C@@H]1CCc2ccccc21` [rasagiline], the “neuroprotection and restoration of nigral dopaminergic neurons” value in [1] is “neuroprotective and also have the ability to restore nigral dopaminergic neurons when given post-MPTP”.
